Assay results: article PMC13267291, “In vivo functional profiling and structural characterization of the human GLP1R A316T variant” (Science Advances, 2026)

Experiments:
[1] = tested on: hGLP1R^A316T/A316T versus hGLP1R^+/+ mice; test: IPGTT after GLP-1RA, HFHS-fed homozygous mice; format: in vivo, mouse; conditions: HFHS diet; 2 nmol/kg ip; acute and 6 hours; n = 9; Fig. 2G-J
Experimental: All animal procedures were approved by the British Home Office under the UK animals (Scientific Procedures) Act 1986 (Project License number PP7151519 to A. Martinez-Sanchez, Imperial College London, UK) and from the local ethical committee (Animal Welfare and Ethics Review Board) at the Central Biological Services unit of Imperial College London. Animals were housed in groups of up to four adult mice in individually ventilated cages under controlled conditions at 21° to 23°C with 12-hour:12-hour light-to-dark cycles (lights on at 07:00). Ad libitum access to water and feed was provided unless otherwise stated. Lean mice were fed a standard chow diet [RM1 (E); Special Diet Services]. For HFHS diet studies, animals were put on a 58 kcal % fat and sucrose diet (D12331, Research Diets Inc.) ad libitum for 10 to 14 weeks before experiments.
To examine acute and prolonged glycemic responses to GLP-1RAs, animals were fasted for 2 hours, starting at 8 a.m. on the morning of the experiments, before IPGTTs. GLP-1RAs were then coadministered at the indicated concentrations with 20% (w/v) D-glucose via intraperitoneal injection at weight-adjusted volumes. Baseline glucose readings were taken via tail venipuncture, and subsequent readings were taken at various time points after glucose ± GLP-1RA administration as for the OGTTs (0-hour acute IPGTTs). […]

[2] = tested on: SNAP/FLAG-hGLP1R^A316T versus ^WT; test: Nb37 bystander NanoBiT assay (plasma membrane and endosomal GLP-1R activity); format: cell-based, human; conditions: log(Emax/EC50), Fig. 8B,C; for Agonist-induced endosomal A316T activity versus WT: n = 4 (GLP-1), n = 3 (Ex-4)
Experimental: Nb37 bystander NanoBiT assays
INS-1 832/3 Glp1r-/- cells were seeded in 6-well plates and co-transfected with the following plasmids:
200 ng pSNAP/FLAG-hGLP1RWT or A316T, 500 ng Gαs (human, short isoform), 500 ng Gβ1 (human), 500 ng Gγ2 (human), 100 ng RIC8B (human, isoform 2), and either 100 ng LgBiT-CAAX (KRAS CAAX motif N-terminally fused with LgBiT) or 500 ng Endofin-LgBiT (Endofin FYVE domain C-terminally fused with LgBiT), plus 100 ng (plasma membrane assay) or 500 ng (endosomal assay) SmBiT-Nb37 [Nb37 cDNA synthesised by GenScript C- terminally fused to SmBiT with a 15 amino acid flexible linker (123) ] and adjusted for total DNA with pcDNA3.1 for the LgBiT-CAAX transfection. 24 hours after transfection, cells were exposed to NanoGlo Live Cell Reagent (Promega) with furimazine (1:20 dilution) and bioluminescence read in a Flexstation 3 plate reader for 8 min before and 30 min after stimulation by […]
AUCs were calculated for each agonist concentration and fitted to log(agonist) versus response four-parameter curves using GraphPad Prism 10.1.2, with logEC50 (potency) and Emax (efficacy) calculated for each replicate dose response curve. Baseline endosomal over plasma membrane bioluminescence ratios were also calculated.
GLP- 1R conformational ECD opening time resolved-fluorescence resonance energy transfer (TR- […]
INS-1 832/3 Glp1r-/- SNAP/FLAG-hGLP1RWT or A316T cells were labelled with SNAP-Lumi4- Tb (Revvity; 40 nM, 60 min at 37°C in complete medium). After washing to remove unbound probe, cells were resuspended in HBSS ± 100 nM plasma membrane dye NR12A (a gift from Prof Andrey Klymchenko, University of Strasbourg, France) for 5 min before washing again. Labelled cells were transferred to 96-well half-area white plates and baseline TR-FRET signal from Lumi-4Tb (donor) and NR12A (acceptor) recorded for 5 min at 37°C using a Flexstation 3 plate reader with the following settings: λex = 335 nm, λem = 490 and 590 n m, delay 50 µs , integration time 300 µs. GLP-1 was then added at serial doses, and […]

Substance | IPGTT glucose responses, A316T/A316T versus +/+ [1] | Plasma membrane activity, A316T versus WT [2] | Agonist-induced endosomal A316T activity versus WT [2]
exendin-F1 | slightly more pronounced desensitization |  | 
GLP-1(7-36)NH2 |  | without changes | tendency to be increased
exendin-4 | slightly more pronounced desensitization | without changes | significantly reduced
